Data on 18 molecules can be found in patent US7557142B2, “Therapeutic use of methionine to reduce the toxicity of platinum-containing anti-tumor compounds” (Board of Trustees of Southern Illinois University, priority 1996, dated 2009).

Entries after “also recorded” stand apart in the source; their conditions may differ. Where a name gives a salt, the structure may show the parent alone.

The conditions of series [1]: parenteral administration in humans; Printen et al., 1979; cited from earlier work.
For series [2], the system named is NHIK 3025 in vitro human uterine cervix carcinoma in situ cancer cells. As to conditions: methionine, presumably a racemic mixture; Melvik and Petterson, 1987; cited from earlier work.
Another series concerns rats. As to conditions: cited from earlier work; for CDDP nephroprotection: literature (Jones et al.; others).
The conditions of series [3]: literature; cited from earlier work.
Series [4] concerns male Wistar rats. Put plainly: Scanning electron microscopy, outer hair cell count per cochlear turn. The series is classed as in vivo, rat. As to conditions: for outer hair cell findings, middle and basal turns: versus untreated control, 75, 150, 300 mg/kg D-Met prior to 16 mg/kg CDDP. As for the experimental part: (§1) Complete data sets were obtained for five groups of five male Wistar rats (280-421 g). All animals were anesthetized with […] IM of Rompun cocktail (a solution containing 86.21 mg/ml ketamine and 2.76 mg/ml xylazine) prior to all injections and testing. Anesthesia was supplemented as needed with half doses throughout testing.
(§2) ABR data were analyzed using a three factor analysis of variance (ANOVA) with one between subject factor (groups) and two within subject factors (frequency and pre- vs. post-test). Each dependent variable was analyzed independently. Tests subsequent to the ANOVA were carried out in accordance with the Tukey HSD procedure. Weight loss and/or gastrointestinal protection was measured using the same type of statistical analysis as the ABR measures. SEM data were analyzed for each turn using a one way analysis of variance with Post-Hoc Tukey HSD analysis. The criterion for statistical significance for all measures was p≦0.01.

In series [5] the test system is male Wistar rats. On the procedure:
as §1

Series [6] relates to Walker 256 carcinosarcoma. As to conditions: rat, in vivo; cited from earlier work.
For series [7], the system named is patients. As to conditions: human, in vivo; cited from earlier work.
For series [8] the following is noted: literature; cited from earlier work. This is another data set of the same source.
The subject of series [9] is male Wistar rats. Briefly: Auditory Brainstem Testing (ABR) of auditory threshold, D-Met before CDDP. It is filed as in vivo, rat.
Series [10] deals with male Wistar rats. On the procedure:
as §1
Each animal's weight was measured in an Ohaus triple beam balance scale before administration of the anesthetic for the pretest and again before the post-test 3 days later.
as §2
The source holds these as a separate data set.

The next series deals with animals. As to conditions: literature, cited from earlier work.
The test system of a further series is hamsters. As to conditions: Church et al. (1995); cited from earlier work.
Series [11] relates to patients. As to conditions: cited from earlier work.
Setting [12] is: 16 mg/kg CDDP alone (treated control).

Take `CSCCC(N)C(=O)O` (racemic) [DL-methionine]: the “plasma levels of isomers” value in [1] is “higher plasma levels of the D- isomer”.
As to `CSCC[C@H](N)C(=O)O` (racemic) [methionine], the “effect of preadministration on CDDP cytotoxicity” value in series [2] is “sensitized NHIK 3025 in vitro human uterine cervix carcinoma in situ cancer cells to CDDP cytotoxicity”.
For the molecule `CSc1ncccc1C(=O)O` [2-(methylthio)nicotinic acid], the CDDP nephroprotection entry with rats is on record as “does not provide nephroprotection in rats”.
As to `O=C(O)CCCC[C@@H]1SC[C@@H]2NC(=O)N[C@@H]21` [Biotin], the CDDP nephroprotection result with rats is “good CDDP nephroprotection”. Besides, in [3], the “effect on CDDP anti-tumor action” value is given as “inhibits anti-tumor activity”.
On to `N.N.[Cl][Pt][Cl]` [CDDP, cis-diamminedichloroplatinum(II)], for which, in the series with male Wistar rats [4], the “outer hair cell findings, middle and basal turns” value is “significantly different findings from the untreated control group”. In the series on male Wistar rats [5] (setting [12]), the “animals surviving to the end of the study period” value was 5/10 and the “animals that did not survive to the end of the study period” value came to 50%. The “time to complete redistribution after tumor uptake” value in series [6] was at most 15 min. The “patients with hearing loss having complete recovery” value in the series on patients [7] is on record as “one of 121”.
Consider `C[C@H](CS)C(=O)N1CCC[C@H]1C(=O)O` [Captropril], for which, in the series with rats, the CDDP nephroprotection entry is recorded as “protects against CDDP nephrotoxicity”.
Take `CC1=C(C(=O)O)N2C(=O)[C@@H](NC(=O)[C@H](N)c3ccccc3)[C@H]2SC1` [Cephalexin]: the “prevention of CDDP kidney pathology” value in the series with rats (Jones et al., 1992) is “does not prevent kidney pathology”. Further, the CDDP nephroprotection entry in the series with rats is “protects against CDDP-induced kidney dysfunction and weight loss”. Also, the “protection against CDDP-induced weight loss” value in series [8] was “protects against CDDP-induced kidney dysfunction and weight loss”.
Take `CSCC[C@@H](N)C(=O)O` [D-Met, D-methionine]: the “animals with complete otoprotection as defined by no significant ABR threshold shift for any stimulus” value in the series with male Wistar rats [9] (75 mg/kg D-Met i.p. 30 minutes prior to 16 mg/kg CDDP, ABR 3 days later) is 2/5; in the series with male Wistar rats [9] (150 mg/kg D-Met i.p. 30 minutes prior to 16 mg/kg CDDP, ABR 3 days later), 3/5. For the same molecule, in the series with male Wistar rats [9] (300 mg/kg D-Met i.p. 30 minutes prior to 16 mg/kg CDDP, ABR 3 days later), the “animals with complete otoprotection for all stimulus conditions” value worked out at 5 animals. In addition, in the series on male Wistar rats [9] (any level of D-Met (75, 150, 300 mg/kg) prior to 16 mg/kg CDDP, p≦0.01), the “ABR thresholds compared with treated control group, all stimuli” value was “significantly lower ABR thresholds than the treated control group”. In addition, in the series with male Wistar rats [4] (all groups, apical turn), the “hair cell counts, apical turn” value is listed as “essentially normal hair cell counts”. In addition, the “outer hair cell findings, middle and basal turns” value in the series with male Wistar rats [4] is “only the treated control group showed significantly different findings”. For the same molecule, the “weight loss compared with treated control group” value in the series on male Wistar rats [10] (300 mg/kg D-Met prior to 16 mg/kg CDDP, 3 days) was “significantly less than that in the treated control group”. In addition, the “CDDP-induced weight loss versus D-Met dose” value in the series on male Wistar rats [10] (75, 150, 300 mg/kg D-Met prior to 16 mg/kg CDDP) is listed as “diminished as D-Met dosing increased”. Further, in the series on male Wistar rats [5] (D-Met prior to 16 mg/kg CDDP), the “alopecia: coat and hair loss versus control group animals” value is “significantly less hair loss”. The “neuroprotection: activity and coordination versus surviving treated controls” value with male Wistar rats [5] (morning of the third day, D-Met prior to 16 mg/kg CDDP) is “noticeably more lively, active, and coordinated”. Besides, in the series on rats, the CDDP nephroprotection result is recorded as “highly effective CDDP nephroprotection”.
On to `CCN(CC)C(=S)S` [DDTC, diethyldithiocarbamate], for which the “side effects of the protective agent” value in the series on animals is recorded as “can produce severe side effects”.
For the molecule `CCOC(=O)[C@@H](N)CS` [Ethyl-L-cysteinate], the CDDP nephroprotection result in the series on rats is listed as “exacerbate CDDP nephrotoxicity”.
Consider `CSCC[C@H](N)C(N)=O` [L-methioninamide], for which the CDDP nephroprotection result with rats was “excellent CDDP nephroprotection”. Further, in series [3], the “effect on CDDP anti-tumor action” value is “impairs CDDP anti-tumor action”.
As for `CC(S)C(=O)NCC(=O)O` (stereo not shown) [N-(2-mercapto-propionyl)glycine], the CDDP nephroprotection entry with rats is “exacerbate CDDP nephrotoxicity”.
Consider `O=S([O-])([O-])=S.[Na+].[Na+]` [STS, sodium thiosulfate], for which the CDDP nephroprotection result in the series with rats was “reduces CDDP nephrotoxicity”. Further, the “effect on CDDP anti-tumor action” value in [3] was “may reduce CDDP tumoricidal action; also recorded: reduces the latter's tumoricidal action”. Further, the CDDP otoprotection entry in the series on animals (animals) is “good CDDP otoprotection”. Moreover, in series [8], the “protection against CDDP-induced weight loss” value was “may exacerbate CDDP-induced weight loss and mortality”.
With `Nc1ccc(S(=O)(=O)Nc2nccs2)cc1` [Sulfathiazole], the CDDP nephroprotection entry with rats is “provides protection against CDDP nephrotoxicity”.
`NCCCNCCSP(=O)(O)O` [WR2721]: the “protection from CDDP ototoxicity or mortality” value in the series on hamsters is recorded as “no WR2721 protection from ototoxicity or mortality”. Also, the “effect on nausea and vomiting” value in the series on patients [11] (Glover et al., 1987) is “does not ameliorate nausea and vomiting”. Also, the CDDP nephroprotection result with patients [11] (Mollman et al., 1988) was “excellent CDDP nephroprotection”. Moreover, in the series with patients [11] (WR2721 prior to CDDP, Glover et al. (1987)), the “patients with mild to severe hearing loss” value is 20 of 36. Besides, the “incidence of significant hearing threshold shift” value with patients [11] (patients pretreated with WR2721 prior to CDDP, Rubin et al. (1995)) is 45%.
For the molecule `CO[C@@]1(NC(=O)Cc2cccs2)C(=O)N2C(C(=O)O)=C(COC(N)=O)CS[C@@H]21` [cefoxitin], in the series with rats, the CDDP nephroprotection result was “does not provide nephroprotection”. Moreover, in series [8], the “protection against CDDP-induced weight loss” value is listed as “some protection against CDDP-induced weight loss”.
Turning to `CC1(C)S[C@@H]2[C@H](NC(=O)Cc3ccccc3)C(=O)N2[C@H]1C(=O)[O-].[Na+]` [sodium salt of penicillin G, penicillin G], in the series with rats, the CDDP nephroprotection result was “does not protect against CDDP nephrotoxicity or weight loss”. Further, the “protection against CDDP-induced weight loss” value in series [8] is on record as “does not protect against CDDP nephrotoxicity or weight loss”.
For `Cc1ncc(C[n+]2csc(CCO)c2C)c(N)n1` [thiamine-HCl], the CDDP nephroprotection entry in the series on rats is given as “does not protect against cisplatin nephrotoxicity or weight loss”. Further, the “protection against CDDP-induced weight loss” value in [8] is “does not protect against cisplatin nephrotoxicity or weight loss”.
